Measurements published in patent US9901650B2, “Methods for evaluating brain-wide paravascular pathway for waste clearance function and methods for treating neurodegenerative disorders based thereon” (University of Rochester, priority 2013, dated 2018).
Entries after “also recorded” stand apart in the source; their conditions may differ. Like-named read-outs stand apart in the source and are kept apart here. No end group written: not given here.

Experiments:
AQP4-M1 expression = AQP4-M1 expression by qPCR in cultured primary cortical astrocytes; format: cell-based, mouse; conditions: vs. control; siRNA transfected for six days
Excerpt: (A) The Aqp4 gene has two transcription initiation site, with transcription initiated at each site resulting in two AQP4 mRNA variants: AQP4-M1 which includes Exons 0-4 of the Aqp4 gene and AQP4-M23 which lacks Exon 0. (B) AQP4-M23 (the predominant form in the CNS under physiological conditions) permits perivascular AQP4 packing while AQP4-M1 prevents it; thus increasing AQP4-M1 expression impairs AQP4 polarization (Crane et el. J Biol Chem 2009; Furman et al. Proc Nat Acad Sci 2003). (C) The expression of AQP4-M1 was evaluated by real-time quantitative PCR (qPCR) in the mouse ipsilateral cortex 3 days after TBI using PCR primers specifically targeting Exon 0 of the AQP4-M1 transcript. Compared to AQP4-M1 expression in the control (sham) cortex, TBI increased AQP4-M1 expression by approximately two-fold (*P<0.05, t-test; n=5 per group). (D) Using an siRNA-based approach targeting Exon 0 of the AQP4-M1 variant, the expression of AQP4-M1 could be efficiently knocked down in cultured primary mouse cortical astrocytes. Three siRNA duplexes were designed to target Exon 0 of the AQP4-M1 transcript, and primary mouse astrocytes were transfected with these siRNA duplexes for six days. […] Thus, we tested whether inhibition of STAT3 signaling in primary mouse cortical astrocytes could reduce AQP4-M1 expression. […]

glymphatic system [1] = assay: Brain influx of 125I-Aβ40 and 14C-inulin after injection into the cisterna magna, pharmacological intervention; format: in vivo, mice
Experimental: The role of RAS on the influx of these molecules into brain was determined by injecting these molecules into the subarachnoid space (cisterna magna) and determining brain levels after 30 minutes.
A small volume (5 μL) of mock CSF containing ^125I-Aβ40 (10 nM) and ^14C-inulin (0.05 μCi) was microinjected into the cistern magna at 1 μL/min. At the end of the experiment (30 minutes) the brain was removed and analyzed for radioactivity.

glymphatic system [2] = assay: Brain clearance of 125I-Aβ40 and 14C-inulin after injection into the frontal cortex, pharmacological intervention; format: in vivo, mice
[3] = Intra-striate radio-tracer injection: interstitial solute clearance from the brain, wild type vs Aqp4-null
Experimental: To evaluate the pathways and rates of interstitial fluid and solute clearance from the brain, fluorescent and radio-labeled tracers were injected stereotactically into the brain parenchyma. Anesthetized animals were fixed in a stereotaxic frame and a 33GA needle was inserted via a small burr hole into the brain at the following coordinates: intra-cortical injections (0.22 mm caudal, 2.0 mm lateral, 1.75 mm ventral to bregma), intra-striate injections (0.22 mm caudal, 2.5 mm lateral, 3.5 mm ventral to bregma), intrathalamic injections (1.82 mm caudal, 1.25 mm lateral, 3.75 mm ventral to bregma). After needle insertion, 30 minutes was allowed to elapse to allow the needle track to swell closed. 1.0 μl of tracer (dissolved in artificial CSF) was injected at a rate of 17 nl/min.
15 min, 30 min, 1 h or 2h later, the animal was rapidly decapitated and the brain harvested. The brain was solubilized as above, and the radioactivity present in the brain was measured by liquid scintillation spectrometry. All radioactivity values were normalized to 1 μl injection standards taken immediately prior to each intra-parenchymal injection.

[4] = Intracisternal radio-tracer injection: accumulation in the brain parenchyma
Experimental: Anesthetized mice were fixed in a stereotaxic frame and a 30GA needle was inserted into the cisterna magna. For intracisternal injections, 10 μl of CSF tracer was injected at a rate of 2 μl/min over 5 minutes with a syringe pump (Harvard Apparatus).
After 15, 30 or 45 minutes, animals were rapidly decapitated, the skull opened, the dura removed and the brain harvested. The brain was solubilized in 2 ml Soluene (Sigma) at 45° C. overnight. 10 ml Hionic Fluor liquid scintillation cocktail (Perkin Elmer) was added and radioactivity was measured in a Multipurpose Scintillation Counter (Beckman Coulter). Brain radioactivity was normalized to total radioactivity detected in a 10 μl aliquot put directly into a scintillation vial immediately before intracisternal radio-tracer injection and expressed as the % of total injected radioactivity. ^3H-mannitol and ^3H-dextran accumulation in the brain was compared by 2-way ANOVA with Bonferroni's post-hoc test.

[5] = Dynamic contrast-enhanced MRI after intrathecal infusion of paramagnetic contrast: regional tissue uptake (TACs, mAUC)
Experimental: Female Sprague Dawley rats were used (Taconics, body weight: 220-280 g). For anesthesia, the animals were induced with 3% isofluorane in oxygen using an induction chamber and then received an intra-peritoneal injection of 40 mg/kg […] (Nembutal® Sodium solution, OVATION, Pharmaceuticals, Inc., Deerfield, Ill., USA). The animals were allowed to breathe spontaneously during the entire experiment. Non-invasive monitors (pulse-oximetry, respiratory rate and rectal temperature probe, SA Instruments, Inc., Stony Brook, N.Y.) were placed to assure adequate oxygenation (O2-saturation>97%), ventilation (respiratory rate 50-65 breath per minute) and normal body temperature (36.5° C.-37.5° C.) during the surgical procedures. A 24-gauge catheter was inserted into the tail vein for administration of fluids and supplemental anesthesia. The animal was positioned in a stereotaxic frame (Kopf Instruments, frame #9) and the head flexed to 50 degrees. For the brief surgical procedure, anesthesia was supplemented with isoflurane (0.8-1.2%) delivered in an 1:1 O2:Air mixture.
The atlanto-occipital membrane was exposed via a midline dorsal neck incision and a small incision was made to expose the underlying dura mater. A polyethylene catheter (6-cm long, 0.28 mm ID×0.61 mm OD, (Solomon Scientific, Plymouth Meeting, Pa.)) filled with normal saline was advanced 1-mm into the intrathecal space via a small durotomy made using a 23-gauge needle and was fixed and sealed with super glue. The skin incision was closed around the catheter.
Following surgery, the rats were flipped supine and positioned in a custom-made acrylic cradle fitted with a head fixation device and a snout mask for delivery of supplemental oxygen. The head of the animal was positioned on top of a 3.0 cm custom-made radio-frequency (rf) receiver coil. Non-invasive, MRI compatible monitors (pulse-oximetry, respiratory rate and rectal temperature probe, SA Instruments, Inc., Stony Brook, N.Y.) were repositioned for continuous monitoring of vital signs while the animal underwent MRI imaging. During imaging, body temperature was kept strictly within 36.5-37.5° C. during imaging using a computer assisted air heating system (SA Instruments, Inc., Stony Brook, N.Y.). The intrathecal catheter was connected to a long PE 20 line filled with paramagnetic MR contrast diluted in 0.9% NaCl attached to a 1 cc-syringe and microinfusion pump (Baxter Model AS50 infusion Pump, Baxter Healthcare Corporation, Illinois, USA). The tail vein catheter was used for maintenance hydration (0.9% NaCl, 4 cc/kg/hr) and supplemental anesthesia (Nembutal®, 5-10 mg/kg IV) administered every 2 hrs as guided by the respiratory rate.
All imaging protocols were performed on a 9.4T/20 MRI instrument interfaced to a Bruker Advance console and controlled by Paravision 5.0 software (Bruker Bio Spin, Billerica, Mass.). A custom-made 3-cm surface radio-frequency coil was used as a receiver and a 16-cm diameter volume coil (Bruker) was used as a transmitter. […] For all experiments a 60 mM (1:8 volume ratio diluted in 0.9% NaCl) Gd-DTPA phantom placed in the vicinity of animal's head was used for image intensity normalization over the time series. […] A total of 80 μl of the paramagnetic contrast agent was delivered intrathecally at an infusion rate of 1.6 μl/min (total infusion time: 50 min). After completion of the intrathecal infusion, the 3D MRI acquisitions continued over 3.9 hrs. At the end of the experiment the animal was euthanized with an overdose of Nembutal.
The general MRI image processing procedure consisted of head motion correction, intensity normalization, smoothing and voxel-by-voxel conversion to % of baseline signal. SPM8 (World Wide Web at fil.ion.ucl.ac.uk/spm) was used for this. First, the acquired T1-weighted MRI images were exported as DICOM files and converted to 3D Nlfti image format.

[6] = Dynamic integrated MRI-PET imaging after intrathecal infusion; conditions: lumbar intrathecal infusion
Experimental: (§1) Sprague Dawley rats (2-3 month old females) were anesthetized with phenobarbital and lumbar intrathecal catheters placed. Imaging was performed using a custom-built, MRI-compatible PET scanner for the rat brain in combination with a 9.4T microMRI (ref). […] The PET ring (ID 38 mm and accommodating the head of a rat) consists of 12 detector blocks consisting of a 4×8 array of 2.22×2.22×5 mm^3 lutetium oxyorthosilicate (LSO) crystals assembled with a thin reflective foil and coupled to a matching non-magnetic S8550 APD array (ref). PET data are transferred via optical fibers to an external (PCI)-based data acquisition board (ref). For simultaneous PET/MRI imaging a custom-made volume RF coil which fits inside the PET ring was used. The 9.4T microMRI used in all experiments is a superconducting horizontal bore magnet (Bruker Biospin 94/20, 400 MHz, Magnex scientific) interfaced to a Bruker Advance console and controlled by Paravision 5.0 software (Bruker Bio Spin, Billerica, Mass.). The magnet is equipped with an actively shielded combined RT-shim and gradient system (B-GA 12S) that can produce a maximum gradient strength of 200 mT/m. […]

[7] = K-means cluster analysis of contrast-enhanced MRI, 4 mid-sagittal slices
Experimental: Non-parametric segmentation to group voxels in the MRI images on the basis of similar kinetics was performed using a k-means cluster algorithm (PMOD Version 3.307, PMOD Technologies, Ltd, Zurich, Switzerland) on four sagittal slices at the level of the aqueduct from each of the 4D T1-weighted MRIs. A volume-of-interest mask containing the brain only was created for the cluster analysis. The number of clusters (K) used was determined by the K which was able to segment out voxels adjacent to the large vessels such as basilar artery (including pituitary recess) and olfactory artery complex. This was done on an interactive, per animal basis.
All data are presented as mean±SD.

[8] = rat, in vivo
Experimental: as §1

[9] = agent 1 μM, 30 minutes, frontal cortex
[10] = ratio of average mAUC of region to average mAUC of pituitary recess, mean ± SD

## O=[N+]([O-])c1ccc2c(c1)S(=O)(=O)C=C2 [STATTIC]
AQP4-M1 expression
  AQP4-M1 expression: significantly reduced

## CC(=N)NCCCC[C@H](N)C(=O)O [L-NIL]
Glymphatic system [1]; mouse, in vivo
  influx of Aβ with dose: dose dependent increase
  influx of inulin with dose: dose dependent increase
Glymphatic system [2]; 1 mM
  clearance of Aβ: increased
  clearance of inulin: increased

## ^125I-amyloid β1-40: radio-labeled amyloid β1-40 peptide tracer
[3]; mouse, in vivo
  rate of clearance from the brain in wild-type mice, in words: exceeded that of either [^3H]mannitol or [^3H]dextran-10
  reduction of clearance from the brain interstitium in Aqp4-null mice compared to wild type: ~55%
[4]; mouse, in vivo
  accumulation in the brain after intracisternal injection, in words: increased in a manner comparable to [^3H]dextran-10

## NC(=O)CC[C@@H]1NC(=O)[C@H](Cc2ccccc2)NC(=O)[C@H](Cc2ccc(O)cc2)NC(=O)[C@@H](N)CSSC[C@@H](C(=O)N2CCC[C@H]2C(=O)N[C@@H](CCCN=C(N)N)C(=O)NCC(N)=O)NC(=O)[C@H](CC(N)=O)NC1=O [vasopressin]
Glymphatic system [2]; [9]
  brain clearance of Aβ: reduced
  brain clearance of inulin: reduced

## CNC[C@H](O)[C@@H](O)[C@H](O)[C@H](O)CO.CNC[C@H](O)[C@@H](O)[C@H](O)[C@H](O)CO.O=C([O-])CN(CCN(CC(=O)[O-])CC(=O)O)CCN(CC(=O)[O-])CC(=O)O.[Gd+3] [Gd-DTPA, 1-deoxy-1(methylamino)D-glucitol dihydrogen [N,N-bis[2-[bis(carboxymethyl)amino]ethyl]glycinato (5-)]gadolinite(2-)(2:1)]
[5]; not normalized, mean ± SD
  mAUC at the pituitary recess: 743±266 % signal change per time interval
[5]; post-injection
  time at which average uptake in the cerebellum peaked / reached apparent plateau: ~90 min
  time of peak of signal changes induced within the parenchyma: 60 to 80 min
[5]; [10]
  mAUC, Aqueduct: 0.34 ± 0.23
  mAUC, Cerebellum: 0.28 ± 0.11
  mAUC, Olfactory Bulb: 0.24 ± 0.11
  mAUC, Pontine Nucleus: 0.17 ± 0.09
[5]; ratio of average mAUC of region to average mAUC of pituitary recess, mean ± SD, intrathecal infusion
  mAUC, Pineal recess: 1.01 ± 0.35
[6]
  transport through the brain-wide glymphatic pathway: with some ‘restriction’
[7]; most distally labeled voxels
  #Voxels - Zone 3, mean (SD): 18295 (7407)
[7]; para-vascular zone
  #Voxels - Zone 1, mean (SD): 4048 (2146)
[7]; rat, in vivo
  Zone 2#Voxels*AUC/Zone 1#Voxels*AUC, mean (SD): 1.62 (0.60)
  time-to-peak of the para-vascular red cluster: ~90 min
[7]; tissue adjacent to zone 1
  #Voxels - Zone 2, mean (SD): 15835 (5690)

## atrial natriuretic peptide (ANP): a peptide that reduces body water and sodium (SLRRSSCFGGRMDRIGAQSGLGCNSFRY; ends and bridges not checked; cysteine pairing not given here; UniProt P01160 124-151, looked up)
Glymphatic system [2]; [9]
  brain clearance of Aβ: reduced
  brain clearance of inulin: reduced

## angiotensin II: peptide of the renin-angiotensin system acting on AT1R and AT2R
Glymphatic system [1]; agent 1 μM injected into the cistern magna, 30 minutes
  influx of Aβ40 into brain: decrease
Glymphatic system [1]; angiotensin II 1 μM, losartan route not given, 30 minutes
  influx of inulin into brain: decrease
Glymphatic system [2]; [9]
  brain clearance of Aβ: reduced
  brain clearance of inulin: reduced
  levels of Aβ40 remaining in brain (recovery): increase
  levels of inulin remaining in brain (recovery): increase

## angiotensin (1-7): active angiotensin metabolite acting on the Mas receptor; opposes angiotensin II (DRVYIHP; Angiotensin 1-7; UniProt P01019 25-31, looked up)
Glymphatic system [2]; 1 nM and 10 nM, 15 minute time point
  clearance of Aβ at 15 minutes: increased; also recorded: greater change between concentrations 10 nM and 1 nM
Glymphatic system [2]; 1 μM, 0.1 μM and 0.01 μM, pre-injected into frontal cortex, 30 minutes
  clearance of Aβ with dose: increased progressively with dose

## OC[C@@H](O)[C@@H](O)[C@H](O)[C@H](O)CO [[^3H]mannitol]
[3]; intra-striate injection
  reduction of clearance from the brain interstitium in Aqp4-null mice compared to wild type: ~70%
[4]; % of total injected radioactivity, R2=0.3597
  approximate maximal influx, plateau of one-phase association fit: 39.96±5.55%
[4]; within 45 min of intracisternal injection
  proportion of injected tracer detectable in the brain: ~40%

## 2-deoxy-2-(^18F)fluoro-D-glucose [^18FDG]
[8]
  transport through the brain-wide glymphatic pathway: moves rapidly through the brain-wide glymphatic pathway
